Here are results for 15 molecules from article doi:10.1101/2024.08.19.608619, “Discovery of potent SARS-CoV-2 nsp3 macrodomain inhibitors uncovers lack of translation to cellular antiviral response” (bioRxiv, 2024).

Where two headings read alike, the source gives them in different places.

For test [1], the target named is T1, SARS-CoV-2 nsp3-mac1 (Severe acute respiratory syndrome coronavirus 2, UniProt P0DTD1). The test is described as follows: biochemical. On the set-up: SARS-CoV-2 nsp3 macrodomain TR-FRET single point, per cent inhibition, n=2.
Test [2] addresses T1, SARS-CoV-2 nsp3-mac1. The test is described as follows: biochemical. It is filed as biochemical. As to conditions: SARS-CoV-2 nsp3 macrodomain TR-FRET single point.
The mark [3] stands for this setting: read-out: perc_inhibition_mean, batch_name=ASAP-0000452-001.
Setting [4] is: read-out: perc_inhibition_mean, batch_name=ASAP-0000454-001.
Where [5] appears, read: read-out: perc_inhibition_mean, batch_name=ASAP-0000455-001.
Where [6] appears, read: read-out: perc_inhibition_mean, batch_name=ASAP-0000456-001.
Setting [7] is: read-out: perc_inhibition_mean, batch_name=ASAP-0000457-001.
Setting [8] is: read-out: perc_inhibition_mean, batch_name=ASAP-0000458-001.
Setting [9] is: read-out: perc_inhibition_mean, batch_name=ASAP-0000459-001.
Setting [10] is: read-out: perc_inhibition_mean, batch_name=ASAP-0000460-001.
The mark [11] stands for this setting: read-out: perc_inhibition_mean, batch_name=ASAP-0000461-001.
[12] abbreviates: read-out: perc_inhibition_mean, batch_name=ASAP-0000462-001.
The mark [13] stands for this setting: read-out: perc_inhibition_mean, batch_name=ASAP-0000463-001.
[14] abbreviates: read-out: perc_inhibition_mean, batch_name=ASAP-0000464-001.
The mark [15] stands for this setting: read-out: perc_inhibition_mean, batch_name=ASAP-0000465-001.
Setting [16] is: read-out: perc_inhibition_mean, batch_name=ASAP-0000466-001.
[17] abbreviates: read-out: perc_inhibition_mean, batch_name=ASAP-0000467-001.

Turning to `CC(C)[C@@H](Nc1ncnc2[nH]ccc12)C(F)F` [ASAP-0000452], in test [1] (setting [3]), the inhibition at 49.75 µM amounted to 81.6% and the inhibition at 99.5 µM worked out at 91.7%. In addition, in test [2] (concentration 49.75 uM), the perc_inhibition_mean is 81.614%. The perc_inhibition_mean in test [2] (concentration 99.5 uM) worked out at 91.659%.

Consider `CC(C)[C@@H]1[C@H](O)CCN1c1ncnc2[nH]ccc12` [ASAP-0000454], for which, in test [1] (setting [4]), the inhibition at 49.75 µM was found to be 17.7% and the inhibition at 99.5 µM amounted to 32.2%. Also, the perc_inhibition_mean in test [2] (concentration 49.75 uM) came out at 17.696%. The perc_inhibition_mean in test [2] (concentration 99.5 uM) came out at 32.152%.

In the case of `CC(C)[C@@H](Nc1ncnc2[nH]ccc12)c1cccs1` [ASAP-0000455], in test [1] (setting [5]), the inhibition at 49.75 µM stood at 84.7% and the inhibition at 99.5 µM stood at 89.9%. In addition, the perc_inhibition_mean in test [2] (concentration 49.75 uM) was found to be 84.659%. Also, in test [2] (concentration 99.5 uM), the perc_inhibition_mean was determined as 89.893%.

`O=C(O)c1cnc(C(=O)N2CCC(c3ccn4ncc(C(=O)N5CCCCC5)c4c3)CC2)cn1` [ASAP-0000456]: the inhibition at 49.75 µM in test [1] (setting [6]) stood at 27.5%. In addition, the inhibition at 99.5 µM in test [1] (setting [6]) stood at 46.4%. Besides, the perc_inhibition_mean in test [2] (concentration 49.75 uM) amounted to 27.543%; in test [2] (concentration 99.5 uM) it was 46.435%.

For the molecule `Cn1nc(C(=O)O)cc1C(=O)N1CCC(c2ccn3ncc(C(=O)N4CCCCC4)c3c2)CC1` [ASAP-0000457], in test [1] (setting [7]), the inhibition at 49.75 µM stood at 34.3% and the inhibition at 99.5 µM was 52.7%. The perc_inhibition_mean in test [2] (concentration 49.75 uM) is listed as 34.252%. In test [2] (concentration 99.5 uM), the perc_inhibition_mean stood at 52.667%.

`O=C(O)c1ccc2c(c1)ncn2-c1ccc(CNC(=O)c2ncnc3[nH]ccc23)cc1` [ASAP-0000458]: the inhibition at 49.75 µM in test [1] (setting [8]) was -33.4%. Moreover, the inhibition at 99.5 µM in test [1] (setting [8]) was -4.65%. Further, the results for the perc_inhibition_mean in test [2] (concentration 49.75 uM) and in test [2] (concentration 99.5 uM) were -33.429% and -4.649%, respectively.

On to `O=C(C[C@@H](NC(=O)c1ncnc2[nH]ccc12)C1CC1)NCc1ccc(C(=O)O)cc1` [ASAP-0000459], for which, in test [1] (setting [9]), the inhibition at 49.75 µM is -9.86%. In test [1] (setting [9]), the inhibition at 99.5 µM was 0.768%. In addition, the results for the perc_inhibition_mean in test [2] (concentration 49.75 uM) and in test [2] (concentration 99.5 uM) were -9.862% and 0.768%, respectively.

Turning to `C[C@@H](NC(=O)c1ncnc2[nH]ccc12)c1ncc(C(=O)O)c(=O)[nH]1` [ASAP-0000460], in test [1] (setting [10]), the inhibition at 49.75 µM was 4.87% and the inhibition at 99.5 µM is 10.7%. In test [2] (concentration 49.75 uM), the perc_inhibition_mean worked out at 4.872%. Further, in test [2] (concentration 99.5 uM), the perc_inhibition_mean was determined as 10.734%.

Regarding `O=C(N[C@@H](C(=O)O)[C@@H](O)Cc1ccccc1)c1ncnc2[nH]ccc12` [ASAP-0000461], in test [1] (setting [11]), the inhibition at 49.75 µM worked out at 3.79% and the inhibition at 99.5 µM was 12.3%. Besides, the perc_inhibition_mean in test [2] (concentration 49.75 uM) is recorded as 3.789%. In addition, the perc_inhibition_mean in test [2] (concentration 99.5 uM) came to 12.267%.

`CC(C)[C@@H](Nc1ncnc2[nH]ccc12)C(N)=O` [ASAP-0000462]: in test [1] (setting [12]), the inhibition at 49.75 µM amounted to 64.4% and the inhibition at 99.5 µM turned out to be 77.7%. Besides, in test [2] (concentration 49.75 uM), the perc_inhibition_mean worked out at 64.403%. Also, the perc_inhibition_mean in test [2] (concentration 99.5 uM) is listed as 77.698%.

As to `Cn1cc([C@@H](Nc2ncnc3[nH]ccc23)C2CCC2)cn1` [ASAP-0000463], the inhibition at 49.75 µM in test [1] (setting [13]) is 78.1%. Also, the inhibition at 99.5 µM in test [1] (setting [13]) came to 91%. Besides, the perc_inhibition_mean in test [2] (concentration 49.75 uM) came to 78.069%; in test [2] (concentration 99.5 uM), 91.032%.

On to `C[C@@H](Cc1ccc(Cl)s1)Nc1ccc([C@@H](CC(=O)O)NC(=O)c2c[nH]c3ncncc23)cc1` [ASAP-0000464], for which, in test [1] (setting [14]), the inhibition at 49.75 µM is -1.54% and the inhibition at 99.5 µM is 1.95%. Further, the perc_inhibition_mean in test [2] (concentration 49.75 uM) was -1.543%. For the same molecule, the perc_inhibition_mean in test [2] (concentration 99.5 uM) was 1.952%.

Turning to `CC(C)[C@H]1CN(c2ncnc3[nH]ccc23)[C@H]1C(C)C` [ASAP-0000465], in test [1] (setting [15]), the inhibition at 49.75 µM came to 0.348% and the inhibition at 99.5 µM was -2.2%. The perc_inhibition_mean in test [2] (concentration 49.75 uM) is reported as 0.348%. Also, the perc_inhibition_mean in test [2] (concentration 99.5 uM) is given as -2.201%.

Take `CC(C)[C@@H](CCN(C)C(=O)c1nn2cccnc2c1Cl)Nc1ncnc2[nH]ccc12` [ASAP-0000466]: in test [1] (setting [16]), the inhibition at 49.75 µM is 0.844% and the inhibition at 99.5 µM was 1.65%. For the same molecule, in test [2] (concentration 49.75 uM), the perc_inhibition_mean was 0.844%. For the same molecule, in test [2] (concentration 99.5 uM), the perc_inhibition_mean is 1.645%.

For the molecule `COc1ccccc1C[C@@H](Nc1ncnc2[nH]ccc12)C(C)C` [ASAP-0000467], the inhibition at 49.75 µM in test [1] (setting [17]) is 31.7%. In addition, the inhibition at 99.5 µM in test [1] (setting [17]) came to 48.5%. Also, the perc_inhibition_mean in test [2] (concentration 49.75 uM) was found to be 31.716%; in test [2] (concentration 99.5 uM) it was 48.499%.
